Measured values from ChEMBL document CHEMBL5727042, “Heteroaromatic compounds as BTK inhibitors” (2018).

Each compound was assayed against T1, Tyrosine-protein kinase Tec (Homo sapiens, UniProt P42680) (assay: Lanthscreen Eu Kinase Binding Assay : Lanthscreen Eu Kinase Binding assay […] is performed as described above for BTK except that 1 nM human recombinant full length TEC (His-tagged) kinase and 1 nM Alexa Fluor647-labeled Kinase Tracer #178 were used instead.Representative compounds of the present invention are assessed for inhibition of BTK, BMX, and TXK measuring phosphorylation of a …).
T1 sequence (P42680 whole entry): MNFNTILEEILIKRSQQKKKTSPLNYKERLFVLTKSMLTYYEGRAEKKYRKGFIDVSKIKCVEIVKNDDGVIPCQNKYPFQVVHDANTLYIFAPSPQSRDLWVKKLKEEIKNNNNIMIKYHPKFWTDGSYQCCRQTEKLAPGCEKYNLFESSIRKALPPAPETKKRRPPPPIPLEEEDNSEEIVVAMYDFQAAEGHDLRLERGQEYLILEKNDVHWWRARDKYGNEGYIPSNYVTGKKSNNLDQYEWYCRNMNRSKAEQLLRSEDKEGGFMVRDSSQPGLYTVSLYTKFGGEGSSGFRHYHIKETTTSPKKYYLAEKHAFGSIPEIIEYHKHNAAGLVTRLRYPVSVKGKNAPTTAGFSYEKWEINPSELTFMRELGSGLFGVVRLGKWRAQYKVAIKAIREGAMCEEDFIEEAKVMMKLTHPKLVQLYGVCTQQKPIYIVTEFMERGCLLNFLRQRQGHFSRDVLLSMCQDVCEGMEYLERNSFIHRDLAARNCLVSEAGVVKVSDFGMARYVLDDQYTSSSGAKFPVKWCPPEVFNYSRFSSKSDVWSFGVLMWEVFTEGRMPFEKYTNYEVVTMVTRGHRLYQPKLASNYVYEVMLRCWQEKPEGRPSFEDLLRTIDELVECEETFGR

IC50 [µM] | Structure (SMILES)
0.13 | CC#CC(=O)N1CC[C@]2(C1)C[C@H](n1nc(-c3cnn(Cc4cc(C(F)(F)F)ccc4Cl)c3)c(C(N)=O)c1N)C2
1.2 | CC#CC(=O)N1CC[C@]2(C1)C[C@H](n1nc(-c3cnn(Cc4cc(C(F)(F)F)ccc4OC)c3)c(C(N)=O)c1N)C2
0.038 | CC#CC(=O)N1CC[C@]2(C1)C[C@H](n1nc(-c3cnn(Cc4ccc(Cl)c(C(F)(F)F)c4)c3)c(C(N)=O)c1N)C2
0.045 | CC#CC(=O)N1CC[C@]2(C1)C[C@H](n1nc(-c3cnn(Cc4cccc(C(F)(F)F)c4Cl)c3)c(C(N)=O)c1N)C2
